Measurements as given in patent publication US6384237B1, “Pyrylium compound, process for making the same, nucleic acid stain, and labeled nucleic acid” (Canon Kabushiki Kaisha, priority 1999, dated 2002).

Key:
salmon sperm DNA [1] = assay: Absorption spectrophotometry of the pyrylium compound free and mixed with salmon sperm DNA; format: binding; settings: DNA 50 μg/ml, compound 3×10^−5 M, 10 mM phosphate buffer pH 7.0
Protocol: Compound 3 prepared in Example 1 (2-(3-carboxypropyl)-4,6-bis(4-N,N-dimethylaminophenyl)pyrylium iodide) was dissolved into a 10 mM phosphate buffer solution (pH 7.0) to prepare Solution IA. A fraction of Solution IA was diluted to a final concentration of 3×10^−5 M, and the diluted solution was subjected to absorption spectrophotometry. The absorption spectrum is denoted by (A) in FIG. 1.
(§1) A DNA solution was prepared using salmon sperm DNA (mfd. by Sigma-Aldrich Co.) which was adequately purified according to a conventional method. A fraction of the DNA solution and a fraction of Solution IA were mixed to prepare Solution IB in which the final DNA concentration was 50 μg/ml and the final concentration of Compound 3 was 3×10^−5 M. A fraction of Solution IB was subjected to absorption spectrophotometry. The absorption spectrum is denoted by (B) in FIG. 1.
(§2) With reference to spectrum (A) of Compound 3 and spectrum (B) of Solution IB in FIG. 1, the absorption bands of Solution IB are shifted to longer wavelengths by 30 nm and absorbance is decreased due to interaction between Compound 3 and the DNA. These changes can be attributed to the intercalative characteristics of Compound 3.
Compound 6 prepared in Example 3 (2-(2-carboxyethyl)-4,6-bis(4-N,N-dimethylaminophenyl)pyrylium iodide) was dissolved into a 10 mM phosphate buffer solution (pH 7.0) to prepare Solution IIA. A fraction of Solution IIA was diluted to a final concentration of 3×10^−5 M, and the diluted solution was subjected to absorption spectrophotometry. The absorption spectrum is denoted by (A) in FIG. 4.
as §1, with “DNA (Sigma-Aldrich” for “DNA (mfd. by Sigma-Aldrich”, “Solution IIA” for “Solution IA”, “Solution IIB” for “Solution IB”, “Compound 6” for “Compound 3”, “FIG. 4.” for “FIG. 1.”
as §2, with “Compound 6” for “Compound 3”, “Solution IIB” for “Solution IB”, “FIG. 4,” for “FIG. 1,”, “to” for “to the”, “Compound 6.” for “Compound 3.”

salmon sperm DNA [2] = assay: Spectrofluorimetry of the pyrylium compound with and without salmon sperm DNA; format: binding; settings: excitation 550 nm; for fluorescence of solution not containing DNA: no DNA; for fluorescence wavelength of solution containing DNA (fluoresces intensely): with salmon sperm DNA
Protocol: A fraction of Solution IA and a fraction of Solution IB were diluted so that the concentration of Compound 3 was the same in these diluted solutions. The diluted solutions were subjected to conventional spectrofluorimetry by excitation light having a wavelength of 550 nm.
A fraction of Solution IIA and a fraction of Solution IIB were diluted so that the concentration of Compound 6 was the same in these diluted solutions. The diluted solutions were subjected to conventional spectrofluorimetry by excitation light having a wavelength of 550 nm.

Structure (SMILES)	change of absorbance due to interaction with DNA (salmon sperm DNA [1])	shift of absorption bands to longer wavelengths due to interaction with DNA (salmon sperm DNA [1])	fluorescence of solution not containing DNA (salmon sperm DNA [2])	fluorescence wavelength of solution containing DNA (fluoresces intensely) (salmon sperm DNA [2])
CN(C)c1ccc(-c2cc(CCCC(=O)O)[o+]c(-c3ccc(N(C)C)cc3)c2)cc1.[I-] [Compound 3, 2-(3-carboxypropyl)-4,6-bis(4-N,N-dimethylaminophenyl)pyrylium iodide]	decreased	30 nm	does not fluoresce	~640 nm
CN(C)c1ccc(-c2cc(CCC(=O)O)[o+]c(-c3ccc(N(C)C)cc3)c2)cc1.[I-] [Compound 6, 2-(2-carboxyethyl)-4,6-bis(4-N,N-dimethylaminophenyl)pyrylium iodide]	decreased	30 nm	does not fluoresce	~640 nm
